# Measurements as given in ChEMBL document CHEMBL4673353, “Switching a Xanthine Oxidase Inhibitor to a Dual-Target Antagonist of P2Y and P2Y as an Oral Antiplatelet Agent with a Wider Therapeutic Window in Rats than Ticagrelor” (J Med Chem, 2020).
# Tests used:
# [1] = Solubility of compound; format: physicochemical
# Rattus norvegicus [2] = assay: Antithrombotic activity in FeCl3-induced Sprague-Dawley rat model of arterial thrombosis assessed as reduction in thrombus weight administered orally once daily for 7 days and measured 2 hrs post last dose; format: functional; conditions: dose 5-20 mg/kg
# [3] = Metabolic stability of compound in human liver microsomes assessed as intrinsic clearance per mg protein at 0.2 uM in presence of NADPH measured up to 90 mins by LC-MS/MS analysis; format: ADME, Microsome; conditions: 1.5 h
# [4] = Acute toxicity in Kunming mouse assessed as death at 2000 mg/kg, ig administered as single dose monitored every day up to14 days; format: organism-based; conditions: in vivo, po, 336 h, time 14 day
# Rattus norvegicus [5] = assay: Antithrombotic activity in FeCl3-induced Sprague-Dawley rat model of arterial thrombosis assessed as reduction in thrombus weight at 20 mg/kg, po qd administered as single dose for 7 days and measured 2 hrs post last dose; format: functional; design: scale not given: the % may be the effect or the level left; conditions: time 7 day
# [6] = Apparent volume of distribution in male Sprague-Dawley rat at 10 mg/kg, iv administered as single dose by LC-MS analysis; format: ADME, organism-based; conditions: in vivo, read-out: Vz
# [7] = Cmax in male Sprague-Dawley rat at 10 mg/kg, iv administered as single dose by LC-MS analysis; format: ADME, organism-based; design: route intravenous, dose 10 mg/kg; conditions: in vivo
# Cytochrome P450 2C9 = Cytochrome P450 2C9 (Homo sapiens, UniProt P11712); assay: Inhibition of CYP2C9 in human liver microsomes using tolbutamide as substrate preincubated for 5 mins followed by NADPH generating system addition and measured after 120 mins by LC-MS/MS; format: ADME
# Cytochrome P450 2C9, sequence (P11712 whole entry): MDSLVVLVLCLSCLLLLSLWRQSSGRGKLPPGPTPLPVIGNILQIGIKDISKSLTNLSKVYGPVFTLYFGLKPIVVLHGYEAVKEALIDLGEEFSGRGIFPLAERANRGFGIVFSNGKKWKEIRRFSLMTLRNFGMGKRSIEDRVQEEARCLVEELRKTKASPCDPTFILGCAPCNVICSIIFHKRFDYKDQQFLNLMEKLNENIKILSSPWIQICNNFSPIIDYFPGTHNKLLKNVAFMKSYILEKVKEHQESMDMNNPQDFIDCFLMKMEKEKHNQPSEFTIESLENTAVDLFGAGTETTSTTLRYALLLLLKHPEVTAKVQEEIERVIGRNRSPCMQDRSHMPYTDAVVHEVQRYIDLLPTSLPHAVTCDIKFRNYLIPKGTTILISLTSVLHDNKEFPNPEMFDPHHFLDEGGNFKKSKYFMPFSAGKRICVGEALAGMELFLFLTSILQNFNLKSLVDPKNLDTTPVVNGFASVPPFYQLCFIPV
# Cytochrome P450 2C19 = Cytochrome P450 2C19 (Homo sapiens, UniProt P33261); assay: Inhibition of CYP2C19 in human liver microsomes using S-mephenytoin as substrate preincubated for 5 mins followed by NADPH generating system addition and measured after 120 mins by LC-MS/MS; format: ADME
# Cytochrome P450 2C19, sequence (P33261 whole entry): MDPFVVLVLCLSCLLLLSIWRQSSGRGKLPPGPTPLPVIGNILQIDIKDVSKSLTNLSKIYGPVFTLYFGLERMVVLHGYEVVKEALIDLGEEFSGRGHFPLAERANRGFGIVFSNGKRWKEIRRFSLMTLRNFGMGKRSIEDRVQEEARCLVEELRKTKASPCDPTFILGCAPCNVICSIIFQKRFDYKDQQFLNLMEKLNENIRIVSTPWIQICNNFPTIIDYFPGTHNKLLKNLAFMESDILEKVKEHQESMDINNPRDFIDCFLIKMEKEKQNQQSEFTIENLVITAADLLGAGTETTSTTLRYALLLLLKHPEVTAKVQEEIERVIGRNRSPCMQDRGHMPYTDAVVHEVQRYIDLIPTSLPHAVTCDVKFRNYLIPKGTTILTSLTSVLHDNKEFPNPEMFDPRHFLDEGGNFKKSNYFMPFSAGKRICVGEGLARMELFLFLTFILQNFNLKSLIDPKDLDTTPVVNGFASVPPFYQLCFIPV
# Cytochrome P450 1A2 = molecular target: T1, Cytochrome P450 1A2 (Homo sapiens, UniProt P05177); assay: Inhibition of CYP1A2 in human liver microsomes using phenacetin as substrate preincubated for 5 mins followed by NADPH generating system addition and measured after 120 mins by LC-MS/MS; format: ADME
# T1 sequence (P05177 whole entry): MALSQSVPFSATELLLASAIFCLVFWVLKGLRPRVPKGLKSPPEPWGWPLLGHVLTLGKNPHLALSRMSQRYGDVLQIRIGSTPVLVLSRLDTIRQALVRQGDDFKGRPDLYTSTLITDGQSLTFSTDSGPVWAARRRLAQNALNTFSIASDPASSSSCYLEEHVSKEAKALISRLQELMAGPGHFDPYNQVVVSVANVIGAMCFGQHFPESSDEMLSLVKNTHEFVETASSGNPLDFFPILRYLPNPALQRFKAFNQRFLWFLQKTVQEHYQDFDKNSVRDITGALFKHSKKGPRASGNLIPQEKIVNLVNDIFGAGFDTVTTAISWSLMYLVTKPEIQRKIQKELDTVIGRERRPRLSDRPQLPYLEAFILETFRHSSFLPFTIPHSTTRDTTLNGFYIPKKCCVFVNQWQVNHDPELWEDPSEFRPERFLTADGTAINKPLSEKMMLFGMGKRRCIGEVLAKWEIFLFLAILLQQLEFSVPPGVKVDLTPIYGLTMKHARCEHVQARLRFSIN
Vd [6] [L/kg],Cmax [7] [ng/mL],IC50 (Cytochrome P450 2C9) [µM],IC50 (Cytochrome P450 2C19) [µM],IC50 (Cytochrome P450 1A2) [µM],Structure (SMILES),solubility [1],Activity (Rattus norvegicus [2]; time 7.0 day),"ED50 (Rattus norvegicus [2]; po, 168 h, time 7 day) [mg/kg]",CLH [3] [mL/min],Activity [4],Activity (Rattus norvegicus [5]) [%]
–,–,–,–,–,CCOC(=O)c1c(C)nc(-c2cccc(C#N)c2)n1OCc1ccc(C#N)cc1,Insoluble,Dose-dependent effect,20.8,0.011,Non-Toxic,46.7
21.3,11200,> 10,> 10,> 10,Cc1nc(-c2cccc(C#N)c2)n(OCc2ccc(C#N)cc2)c1C(=O)O,–,–,–,–,–,–
